Results from ChEMBL document CHEMBL6078684, “Discovery of a Novel Non-invasive AR PROTAC Degrader for the Topical Treatment of Androgenetic Alopecia” (J Med Chem, 2024).
Activity calls are given as the source filed them. The rule behind the calls is not given here.

Legend:
[1] = molecular target: T1, Protein cereblon/Androgen receptor (Homo sapiens, UniProt P10275+Q96SW2); assay: PROTAC activity at CRBN/AR in human dermal papilla cell assessed as induction of AR degradation measured after 24 hrs by Western blot analysis; assay type: cell-based
Target sequence in this assay (P10275 whole entry): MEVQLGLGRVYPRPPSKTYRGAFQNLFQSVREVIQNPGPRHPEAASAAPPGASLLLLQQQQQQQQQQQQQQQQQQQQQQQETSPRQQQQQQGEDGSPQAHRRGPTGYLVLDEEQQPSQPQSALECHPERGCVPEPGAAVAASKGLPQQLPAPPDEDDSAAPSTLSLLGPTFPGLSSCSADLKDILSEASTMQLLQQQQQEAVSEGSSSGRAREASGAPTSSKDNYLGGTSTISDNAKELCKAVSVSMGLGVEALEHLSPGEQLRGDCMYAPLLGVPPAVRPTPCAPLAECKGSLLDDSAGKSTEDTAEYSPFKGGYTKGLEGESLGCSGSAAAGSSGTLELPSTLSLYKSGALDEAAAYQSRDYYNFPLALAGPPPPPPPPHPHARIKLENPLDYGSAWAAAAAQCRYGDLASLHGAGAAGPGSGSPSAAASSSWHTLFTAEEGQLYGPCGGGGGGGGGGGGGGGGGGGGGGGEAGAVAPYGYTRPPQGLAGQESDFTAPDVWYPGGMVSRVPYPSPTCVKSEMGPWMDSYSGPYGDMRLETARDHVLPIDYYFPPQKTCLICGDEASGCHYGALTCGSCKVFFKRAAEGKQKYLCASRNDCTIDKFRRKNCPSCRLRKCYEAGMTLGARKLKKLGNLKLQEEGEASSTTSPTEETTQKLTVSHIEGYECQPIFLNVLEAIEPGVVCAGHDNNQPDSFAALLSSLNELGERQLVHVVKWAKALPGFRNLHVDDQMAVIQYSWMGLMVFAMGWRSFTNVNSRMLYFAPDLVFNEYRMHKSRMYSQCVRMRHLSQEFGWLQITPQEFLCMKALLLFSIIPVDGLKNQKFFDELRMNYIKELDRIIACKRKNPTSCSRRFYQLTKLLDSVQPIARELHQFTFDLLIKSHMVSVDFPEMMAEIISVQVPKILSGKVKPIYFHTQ
Target sequence in this assay (Q96SW2 whole entry): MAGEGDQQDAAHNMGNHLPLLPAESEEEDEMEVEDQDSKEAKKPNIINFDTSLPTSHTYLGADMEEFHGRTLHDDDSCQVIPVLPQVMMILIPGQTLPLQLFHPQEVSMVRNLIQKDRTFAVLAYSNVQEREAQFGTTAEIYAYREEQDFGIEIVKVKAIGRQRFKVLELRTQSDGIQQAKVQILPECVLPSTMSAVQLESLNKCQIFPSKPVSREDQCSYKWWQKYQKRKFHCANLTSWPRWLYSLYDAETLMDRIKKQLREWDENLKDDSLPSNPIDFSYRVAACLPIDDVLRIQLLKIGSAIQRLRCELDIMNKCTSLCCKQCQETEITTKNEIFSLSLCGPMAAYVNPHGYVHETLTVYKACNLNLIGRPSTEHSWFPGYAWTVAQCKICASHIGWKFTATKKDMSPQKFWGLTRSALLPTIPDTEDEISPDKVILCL

[2] = molecular target: T1, Protein cereblon/Androgen receptor; assay: PROTAC activity at CRBN/AR in human dermal papilla cell assessed as induction of AR degradation by measuring maximal efficacy after 24 hrs by Western blot analysis relative to control; assay type: cell-based
Target sequence in this assay (P10275 whole entry, looked up): as the sequence (P10275 whole entry) above
Target sequence in this assay (Q96SW2 whole entry, looked up): as the sequence (Q96SW2 whole entry) above

[3] = molecular target: T1, Protein cereblon/Androgen receptor; assay: PROTAC activity at CRBN/AR in human dermal papilla cell assessed as induction of AR degradation at 500 nM by Western blot analysis; assay type: cell-based; conditions: time 2-24 hrs
Target sequence in this assay (P10275 whole entry, looked up): as the sequence (P10275 whole entry) above
Target sequence in this assay (Q96SW2 whole entry, looked up): as the sequence (Q96SW2 whole entry) above

[4] = molecular target: T1, Protein cereblon/Androgen receptor; assay: PROTAC activity at CRBN/AR in human dermal papilla cell assessed as induction of AR degradation at 500 nM measured after 24 hrs by Western blot analysis; assay type: cell-based
Target sequence in this assay (P10275 whole entry, looked up): as the sequence (P10275 whole entry) above
Target sequence in this assay (Q96SW2 whole entry, looked up): as the sequence (Q96SW2 whole entry) above

[5] = molecular target: T1, Protein cereblon/Androgen receptor; assay: PROTAC activity at CRBN/AR in human dermal papilla cells assessed as induction of AR degradation at 500 nM in presence of MG132 by Western blot analysis; assay type: cell-based; conditions: Human dermal papilla cell
Target sequence in this assay (P10275 whole entry, looked up): as the sequence (P10275 whole entry) above
Target sequence in this assay (Q96SW2 whole entry, looked up): as the sequence (Q96SW2 whole entry) above

[6] = molecular target: T1, Protein cereblon/Androgen receptor; assay: PROTAC activity at CRBN/AR in human dermal papilla cells assessed as induction of AR degradation at 500 nM in presence of warhead of compound by Western blot analysis; assay type: cell-based; conditions: Human dermal papilla cell
Target sequence in this assay (P10275 whole entry, looked up): as the sequence (P10275 whole entry) above
Target sequence in this assay (Q96SW2 whole entry, looked up): as the sequence (Q96SW2 whole entry) above

[7] = molecular target: T1, Protein cereblon/Androgen receptor; assay: PROTAC activity at CRBN/AR in human dermal papilla cells assessed as induction of AR degradation at 500 nM in presence of pomalidomide by Western blot analysis; assay type: cell-based; conditions: Human dermal papilla cell
Target sequence in this assay (P10275 whole entry, looked up): as the sequence (P10275 whole entry) above
Target sequence in this assay (Q96SW2 whole entry, looked up): as the sequence (Q96SW2 whole entry) above

[8] = molecular target: T1, Protein cereblon/Androgen receptor; assay: PROTAC activity at CRBN/AR in human dermal papilla cells assessed as decrease in AR protein level at 250 to 1000 nM preincubated with testosterone for 24 hrs followed by compound addition and measured after 48 hrs by Western blot analysis; assay type: cell-based; conditions: Human dermal papilla cell, dose 250-1000 nM
[9] = molecular target: T1, Protein cereblon/Androgen receptor; assay: PROTAC activity at CRBN/AR in human dermal papilla cells assessed as increase in beta-catenin protein level at 250 to 1000 nM preincubated with testosterone for 24 hrs followed by compound addition and measured after 48 hrs by Western blot analysis; assay type: cell-based; conditions: Human dermal papilla cell, dose 250-1000 nM
[10] = molecular target: T1, Protein cereblon/Androgen receptor; assay: PROTAC activity at CRBN/AR in human dermal papilla cells assessed as decrease in TGF-beta1 expression level at 250 to 1000 nM preincubated with testosterone for 24 hrs followed by compound addition and measured after 48 hrs by Western blot analysis; assay type: cell-based; conditions: Human dermal papilla cell, dose 250-1000 nM
[11] = molecular target: T1, Protein cereblon/Androgen receptor; assay: PROTAC activity at CRBN/AR in human dermal papilla cells assessed as inhibition of TGF-beta1 release by measuring TGF-beta1 concentration at 500 nM preincubated with testosterone for 24 hrs followed by compound addition and measured after 48 hrs by ELISA; assay type: cell-based; conditions: Human dermal papilla cell
[12] = Cmax in male ICR mouse skin at 4 mg/ml, TOP measured after 12 hrs by LC-MS/MS analysis; assay type: ADME, tissue-based, Skin of body; conditions: topical or ocular
[13] = AUC (0 to t) in male ICR mouse skin at 4 mg/ml, TOP measured after 12 hrs by LC-MS/MS analysis; assay type: ADME, tissue-based, Skin of body; conditions: in vivo, topical_or_ocular
[14] = Cmax in male ICR mouse plasma at 4 mg/ml, TOP measured after 12 hrs by LC-MS/MS analysis; assay type: ADME, cell-free; conditions: topical or ocular
[15] = Drug uptake in male ICR mouse lung at 4 mg/ml, TOP measured after 12 hrs by LC-MS/MS analysis; assay type: ADME, tissue-based; conditions: in vivo, topical_or_ocular
[16] = Ratio of drug concentration in male ICR mouse skin to plasma at 4 mg/ml, TOP measured after 0.25 hrs by LC-MS/MS analysis; assay type: ADME, cell-free; conditions: topical or ocular
[17] = Ratio of drug concentration in male ICR mouse skin to plasma at 4 mg/ml, TOP measured after 1 hrs by LC-MS/MS analysis; assay type: ADME, cell-free; conditions: topical or ocular
[18] = Ratio of drug concentration in male ICR mouse skin to plasma at 4 mg/ml, TOP measured after 2 hrs by LC-MS/MS analysis; assay type: ADME, cell-free; conditions: other tissue, topical_or_ocular
[19] = Ratio of drug concentration in male ICR mouse skin to plasma at 4 mg/ml, TOP measured after 4 hrs by LC-MS/MS analysis; assay type: ADME, cell-free; conditions: other tissue, topical_or_ocular
[20] = Ratio of drug concentration in male ICR mouse skin to plasma at 4 mg/ml, TOP measured after 8 hrs by LC-MS/MS analysis; assay type: ADME, cell-free; conditions: other tissue, topical_or_ocular
[21] = Ratio of drug concentration in male ICR mouse skin to heart at 4 mg/ml, TOP measured after 2 hrs by LC-MS/MS analysis; assay type: ADME, tissue-based; conditions: in vivo, topical_or_ocular
[22] = Ratio of drug concentration in male ICR mouse skin to heart at 4 mg/ml, TOP measured after 8 hrs by LC-MS/MS analysis; assay type: ADME, tissue-based; conditions: in vivo, topical_or_ocular
[23] = Ratio of drug concentration in male ICR mouse skin to heart at 4 mg/ml, TOP measured after 12 hrs by LC-MS/MS analysis; assay type: ADME, tissue-based; conditions: in vivo, topical_or_ocular
[24] = Ratio of drug concentration in male ICR mouse skin to liver at 4 mg/ml, TOP measured after 0.5 hrs by LC-MS/MS analysis; assay type: ADME, tissue-based; conditions: in vivo, topical_or_ocular
[25] = Ratio of drug concentration in male ICR mouse skin to liver at 4 mg/ml, TOP measured after 1 hrs by LC-MS/MS analysis; assay type: ADME, tissue-based; conditions: in vivo, topical_or_ocular
[26] = Ratio of drug concentration in male ICR mouse skin to liver at 4 mg/ml, TOP measured after 4 hrs by LC-MS/MS analysis; assay type: ADME, tissue-based; conditions: in vivo, topical_or_ocular
[27] = Ratio of drug concentration in male ICR mouse skin to liver at 4 mg/ml, TOP measured after 8 hrs by LC-MS/MS analysis; assay type: ADME, tissue-based; conditions: in vivo, topical_or_ocular
[28] = Ratio of drug concentration in male ICR mouse skin to spleen at 4 mg/ml, TOP measured after 2 hrs by LC-MS/MS analysis; assay type: ADME, tissue-based; conditions: in vivo, topical_or_ocular
[29] = Ratio of drug concentration in male ICR mouse skin to spleen at 4 mg/ml, TOP measured after 4 hrs by LC-MS/MS analysis; assay type: ADME, tissue-based; conditions: in vivo, topical_or_ocular
[30] = Ratio of drug concentration in male ICR mouse skin to lungs at 4 mg/ml, TOP measured after 0.5 hrs by LC-MS/MS analysis; assay type: ADME, tissue-based, Skin/Lung; conditions: in vivo, topical_or_ocular
[31] = system: Mus musculus; assay: Hair regeneration efficacy in testosterone induced male C57BL/6 mouse androgenetic alopecia model at 0.4 %, TOP administered once daily for 14 days and measured after 21 days with co-administration of 0.2% testosterone for 28 days relative to minoxidil by photographic analysis; assay type: functional; conditions: time 14 day
[32] = system: Mus musculus; assay: Hair regeneration efficacy in testosterone induced male C57BL/6 mouse androgenetic alopecia model assessed as earlier pigmentation at 0.1 to 0.4 %, TOP administered once daily for 14 days and measured after 21 days with co-administration of 0.2% testosterone for 28 days by photographic analysis; assay type: functional, organism-based; conditions: dose 0.1-0.4 %, time 14.0 day
[33] = system: Mus musculus; assay: (§1) Hair regeneration efficacy in testosterone induced male C57BL/6 mouse androgenetic alopecia model assessed as entry of hair follicles to anagen phase by measuring high density of enlarged hair bulbs in subcutaneous tissue at 0.4 %, TOP administered once daily for 14 days with co-administration of 0.2% testosterone for 28 days by H and E staining based analysis; assay type: functional, organism-based; conditions: time 14.0 day
[34] = system: Mus musculus; assay: as §1, with “0.1” for “0.4”; assay type: functional, organism-based; conditions: time 14.0 day
[35] = molecular target: Protein cereblon/Androgen receptor (Mus musculus) (UniProt P19091+Q8C7D2); assay: In vivo PROTAC activity at CRBN/AR in testosterone induced male C57BL/6 mouse androgenetic alopecia model assessed as increase in beta-catenin expression level in skin at 0.4 % TOP administered once daily for 14 days with co-administration of 0.2% testosterone for 28 days by DAPI staining based immunofluorescence analysis; assay type: functional, organism-based; conditions: time 14.0 day
Chain of Protein cereblon/Androgen receptor (Mus musculus) (P19091 whole entry, looked up): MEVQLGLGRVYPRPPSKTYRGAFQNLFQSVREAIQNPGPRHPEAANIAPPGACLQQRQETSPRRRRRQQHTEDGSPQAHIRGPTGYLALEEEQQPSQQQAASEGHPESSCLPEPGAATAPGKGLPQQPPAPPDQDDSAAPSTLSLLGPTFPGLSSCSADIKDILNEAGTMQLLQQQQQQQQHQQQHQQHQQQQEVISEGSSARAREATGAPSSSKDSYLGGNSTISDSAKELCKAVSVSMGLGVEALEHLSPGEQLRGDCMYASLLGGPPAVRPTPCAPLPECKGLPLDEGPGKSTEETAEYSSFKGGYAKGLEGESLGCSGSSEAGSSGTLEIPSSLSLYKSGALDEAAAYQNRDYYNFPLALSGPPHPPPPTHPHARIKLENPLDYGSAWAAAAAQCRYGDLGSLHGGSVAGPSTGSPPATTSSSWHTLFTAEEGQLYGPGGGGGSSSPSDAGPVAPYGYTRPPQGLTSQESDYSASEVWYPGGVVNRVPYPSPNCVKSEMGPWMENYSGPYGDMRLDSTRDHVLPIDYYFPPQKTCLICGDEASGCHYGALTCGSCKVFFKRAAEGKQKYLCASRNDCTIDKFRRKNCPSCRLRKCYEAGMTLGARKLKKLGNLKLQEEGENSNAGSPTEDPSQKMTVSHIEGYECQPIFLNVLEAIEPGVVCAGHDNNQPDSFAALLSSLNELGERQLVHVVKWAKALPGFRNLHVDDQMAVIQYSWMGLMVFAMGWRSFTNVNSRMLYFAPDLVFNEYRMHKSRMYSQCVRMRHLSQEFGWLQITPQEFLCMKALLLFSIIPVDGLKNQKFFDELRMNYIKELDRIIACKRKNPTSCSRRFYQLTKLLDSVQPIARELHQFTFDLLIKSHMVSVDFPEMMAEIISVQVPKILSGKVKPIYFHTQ
Chain of Protein cereblon/Androgen receptor (Mus musculus) (Q8C7D2 whole entry, looked up): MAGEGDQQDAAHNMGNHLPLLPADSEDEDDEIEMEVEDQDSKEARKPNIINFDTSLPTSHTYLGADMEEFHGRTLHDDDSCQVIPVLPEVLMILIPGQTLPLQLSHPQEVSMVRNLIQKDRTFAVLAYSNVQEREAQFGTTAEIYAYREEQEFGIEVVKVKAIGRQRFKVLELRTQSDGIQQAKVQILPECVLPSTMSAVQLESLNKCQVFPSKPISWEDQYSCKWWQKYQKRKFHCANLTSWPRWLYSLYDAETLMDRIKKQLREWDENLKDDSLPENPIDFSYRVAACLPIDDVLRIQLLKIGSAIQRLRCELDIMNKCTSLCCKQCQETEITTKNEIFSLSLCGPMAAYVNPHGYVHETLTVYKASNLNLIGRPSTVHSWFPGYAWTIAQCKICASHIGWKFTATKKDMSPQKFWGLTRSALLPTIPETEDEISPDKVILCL

- DC50 [1]: 262 nM
- Emax [2]: 63%
- Activity [3]: Time-dependent-effect
- Activity [6]: inactive
- Activity [7]: inactive
- Activity [8]: Active
- Activity [9]: Active
- Activity [10]: Active
- Activity [11]: 869 pg/mL
- Cmax [12]: 86700 ng/g
- AUCt [13]: 651924.91 ng·h/g
- Cmax [14]: 708 ng/mL
- Drug uptake [15]: Active
- Kp at 0.25 h [16]: 117
- Kp at 1 h [17]: 71.5
- Ratio [18]: 1098.91
- Ratio [19]: 1873.84
- Ratio [20]: 2610.82
- Ratio [21]: 638.59
- Ratio [22]: 754.91
- Ratio [23]: 274.38
- Ratio [24]: 465.04
- Ratio [25]: 485.29
- Ratio [26]: 629.99
- Ratio [27]: 196.27
- Ratio [28]: 450.95
- Ratio [29]: 635.83
- Ratio [30]: 54.37
- Activity [35]: Active
Structure (SMILES): N#Cc1ccc(O[C@H]2CC[C@H](NC(=O)c3ccc(C4CCN(CC5CCCN(c6ccc(C(=O)NC7CCC(=O)NC7=O)cc6)C5)CC4)cc3)CC2)cc1Cl (stereo not given in full)
- Activity [4]: Active; Maximum Degradation Level Observed
- Activity [5]: Not active; Compound Activity Dependent On Ubiquitin-Proteosome System
- Activity [31]: 100%
- Activity [32]: Active
- Activity [33]: Active
- Activity [34]: Active; Less Effective Compared To High Dose Compound Group And Minoxidil Group
